Laboratory results: US5049637A, “1,2,3,4,10,14b-hexahydrodibenzo[c,f]pyrazino-[1,2-a]azepino derivatives and 10-aza, 10-oxa and 10-thia analogues” (Monash University, priority 1987, dated 1991)

Assays:
[1] = system: arterial blood pressure and heart rate; assay: Arterial blood pressure and heart rate in guinea pigs after intravenous doses; assay type: in vivo, guinea pig; details: intravenous 0.01 mg/kg or greater
isolated rat uterus = assay: Isolated rat uterus in vitro
[2] = system: depressor effects of histamine; assay: Effects of histamine in cats; assay type: in vivo, cat; details: intravenous
Method: (§1) The compound of Example 2 was found in low concentrations to inhibit contractions of the guinea-pig isolated ileum and rat isolated stomach strip caused by histamine and 5-hydroxytryptamine respectively. […] Concomitantly, the depressor effects of histamine were blocked, as were the pressor effects of 5-hydroxytryptamine for over 30 minutes. The pressor effects of 5-hydroxytryptamine in anaesthetised and pithed rats were inhibited by intravenous doses of 0.3-1.0 mg/kg body weight. Slightly higher doses reduced the bradycardia and the depressor response (the Bezold-Jarisch reflex mediated by 5-HT3 receptors) to 5-hydroxytryptamine in anaesthetised rats. The drug inhibited oedema in the rat paw caused by intraplantar 5-hydroxytryptamine. […] In mice it inhibited diarrhoea caused by L-5-hydroxytryptophan. In guinea pigs, intravenous doses of 0.03 mg/kg and above reduced the bronchoconstrictor effects of histamine and 5-hydroxytryptamine.
(§2) In cats, the effects of the ganglion stimulant McNeil -A-343 and histamine were reduced. Following intravenous injection into guinea-pigs, […] reduced histamine and 5-hydroxytryptamine induced broncho-constriction. Concentrations of 1 μg/ml or greater relaxed the isolated rat uterus in vitro.
(§3) The compound of Example 4 when injected into rats at intravenous doses of 0.3 mg/kg or greater reduced the pressor effects of 5-hydroxytryptamine and also the depressor effects of histamine. In cats, the effect of histamine was reduced after these doses also.

[3] = system: bronchoconstrictor effects of histamine and 5-hydroxytryptamine; assay: Histamine and 5-hydroxytryptamine induced bronchoconstriction in guinea pigs; assay type: in vivo, guinea pig; details: Cavia porcellus, intravenous, read-out: Intravenous dose reducing histamine and 5-hydroxytryptamine bronchoconstriction
Method: as §1, §2, §3
Thus doses of 1 mg/kg given intraperitoneally attenuated the facilitation of spinal reflex activity caused by p-chloroamphetamine, and also the facilitation of spinal reflexes induced by fenfluramine in spinal and decerebrate rats. […] The drug in doses of 10 and 20 mg/kg intraperitoneally and in doses of 20 mg/kg by mouth attenuated morphine-induced catalepsy. We conclude therefore that this drug is an orally active drug with central actions, particularly affecting serotonergic mechanisms, but has no effect in vitro (Table 1). […] Thus it was found after intravenous doses of 0.03 mg/kg to reduce histamine and 5-hydroxytryptamine bronchoconstriction in the guinea pig.

[4] = system: isolated guinea pig ileum (KCl-induced contractions); assay: Block of KCl-induced contraction of the isolated guinea-pig ileum; details: block of contractions of isolated guinea pig ileum induced by KCl
Method: (§4) Compounds according to formula I were tested for their ability to block contractions of the isolated guinea pig ileum induced by KCl, carbachol, or histamine at a concentration of 10^-7 M. Ileum preparations were prepared according to standard methodology. The concentrations shown are the minimum required to show activity.

[5] = system: pressor effects of 5-hydroxytryptamine; assay: Pressor effects of 5-hydroxytryptamine in rats; assay type: in vivo, rat; details: rat, intravenous; read-out: Intravenous dose depressing/reducing the pressor responses to 5-hydroxytryptamine
Method: as §1, §2, §3

[6] = system: depressor effects of histamine; assay: Depressor effects of histamine in rats; assay type: in vivo, rat; details: Rattus norvegicus, intravenous, read-out: Intravenous dose reducing the depressor effects of histamine
Method: as §1, §3

[7] = system: isolated guinea pig ileum (carbachol-induced contractions); assay: Block of carbachol-induced contraction of the isolated guinea-pig ileum; details: block of contractions of isolated guinea pig ileum induced by carbachol
Method: as §4

[8] = system: isolated guinea pig ileum (histamine-induced contractions); assay: Block of histamine-induced contraction of the isolated guinea-pig ileum
Method: as §1, §4

Question: For `NC(=S)N1CCN2c3ccccc3Cc3ccccc3C2C1` (centres unmarked) [Example 4, 2-Thiocarboxamido-1,2,3,4,10,14b-hexahydrodibenzo [c,f]pyrazino[1,2-a]azepine], which “Effects on arterial blood pressure and heart rate compared with the compound of Example 2” value [1] is on record?
Answer: The value was “smaller effects”.

Question: And the “Concentration reducing contractions of the isolated rat uterus caused by 5-hydroxytryptamine or high potassium concentrations” value (isolated rat uterus)?
Answer: Its value is at least 0.1 µg/mL.

Question: What about the Anti-spasmodic action (isolated rat uterus; 0.1 μg/ml or greater) of the same molecule?
Answer: The Anti-spasmodic action was “anti-spasmodic action”.

Question: And the “Effects of histamine (depressor) in cats” value [2]?
Answer: The value was “reduced”.

Question: And the minimal effective dose [3]?
Answer: Its minimal effective dose is at least 0.01 mg/kg.

Question: And the “Effect on KCl” value [4]?
Answer: The value was “- (no effect)”.

Question: What about the minimal effective dose [5] of the same molecule?
Answer: Its minimal effective dose is at least 0.3 mg/kg.

Question: And the minimal effective dose [6]?
Answer: Its minimal effective dose is at least 0.3 mg/kg.

Question: What about the “Effect on Carbachol” value [7] of the same molecule?
Answer: Its value is “- (no effect)”.

Question: And the minimal effective concentration ([8]; Cavia porcellus, isolated guinea pig ileum, histamine 10^-7 M, read-out: Effect on Histamine: minimum concentration required to show activity)?
Answer: Its minimal effective concentration is 0.01 to 0.1 µM.

Question: What about the “Effect on Histamine” value ([8]; block of contractions of isolated guinea pig ileum induced by histamine at 10^-7 M) of the same molecule?
Answer: Its value is “++”.
